US20090176776A1, “SMALL MOLECULE INHIBITORS OF HIV-1 CAPSID ASSEMBLY” (UNIVERSITY OF ALABAMA AT BIRMINGHAM, priority 2005, published 2009)

System: Luc-M7 cells
Test: Cell viability of Luc-M7 cells (Cell-Titer Glo)
Type: cell-based
Parameters: unit: μM
Conditions: mock-infected Luc-M7 cells, 6 days
Description: Anti-HIV Assays (Multiple Round). The inhibitory effects of the tested compounds on HIV-1YU2 replication were determined by the level of luciferase expression after 6 days of infection using Bright-Glo assay (Promega). An amount of 1.5×10^4 Luc-M7 (a gift from Ned Landau) cells per ml were infected with HIV-1YU2 at a multiplicity of infection (MOI) of 3. The HIV-1 infected ([…] compound) or mock-infected (0-300 μM compound) Luc-M7 cells were placed in 96-well culture plates (100 μl/well) with 100 μl of various concentrations of the compounds with 20 μg/ml DEAE Dextran in triplicate and incubated at 37° C. under 5% CO2 at 100% humidity. After 6 days, cell viability was quantified by Cell-Titer Glo assay (Promega). […] On day 5 cell viability was determined in the mock-infected cells. FIGS. 12-18 show the anti-HIV assays for the examples of chemical compounds used according to the invention. After in-vitro assay, the chemical compounds in FIGS. 12-18 were selected for screening for cell viability and toxicity. Jurkat cells assay was used as screening assay. […] After five days, GFP expression was read. Cell viability was monitored with Alamar Blue assay. Luc M7 assay was designed to measure inhibitory activity of the chemical compounds to viral replication. After infection of cells with YU2 virus, plate cells in 96-well plate in the presence of six concentration of compounds in DMSO. At day 6, the number of cells in wells were read with Cell Titer Glo kit or by counting the number of cells infected with Bright Glo kit. 293T cells assay was designed to determine the toxicity. 293T cells were transfected with NL43. After four hours, transfected cells were plated in 96-well plate in DMSO and 2 μM Indinavir. 72 hours later, viral supernatant was collected and plated on J[…].

With `Cc1ncc(C[n+]2csc(CCOC(=O)C3C4CC5CC(C4)CC3C5)c2C)c(N)n1.Cl.[Cl-]` (stereo not shown) [Compound 26] the TC50 was 70.4.
